Source: patent US9006250B2, “4-amino-6-(heterocyclic)picolinates and 6-amino-2-(heterocyclic)pyrimidine-4-carboxylates and their use as herbicides” (Dow AgroSciences, LLC, priority 2013, dated 2015)

Columns and labels:
[1] = system: ABUTH: velvetleaf (Abutilon theophrasti); assay: Post-Emergent Test II herbicidal activity; assay type: in vivo; settings: post-emergence, 336 h, 14 days, read-out: Visual Growth Reduction (%) 14 Days After Application ABUTH; for pest or weed control at 35 g/ha: 35 g ai/ha; for pest or weed control at 70 g/ha: 70 g ai/ha; for pest or weed control at 140 g/ha: 140 g ai/ha
Procedure, shortened: (§1)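 Greenhouse post-emergence spray, 1st–2nd true leaf stage. Track sprayer, 187 L/ha, acetone/DMSO/IPA/crop oil/Triton formulation; 1×, ½×, ¼×, ⅛×, 1/16× rates. Subirrigated; % injury vs untreated, 14 d.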

[2] = system: AMARE: redroot pigweed (Amaranthus retroflexus); assay: Post-Emergent Test II herbicidal activity; assay type: in vivo; settings: post-emergence, 336 h, 14 days, read-out: Visual Growth Reduction (%) 14 Days After Application AMARE; for pest or weed control at 35 g/ha: 35 g ai/ha; for pest or weed control at 70 g/ha: 70 g ai/ha; for pest or weed control at 140 g/ha: 140 g ai/ha
Procedure, shortened: as §1

[3] = system: BRSNN: oilseed rape, canola (Brassica napus); assay: Post-Emergent Test II herbicidal activity; assay type: in vivo; settings: post-emergence, 336 h, 14 days, read-out: Visual Growth Reduction (%) 14 Days After Application BRSNN; for pest or weed control at 35 g/ha: 35 g ai/ha; for pest or weed control at 70 g/ha: 70 g ai/ha; for pest or weed control at 140 g/ha: 140 g ai/ha
Procedure, shortened: as §1

[4] = system: CHEAL: lambsquarters (Chenopodium album); assay: Post-Emergent Test II herbicidal activity; assay type: in vivo; settings: post-emergence, 336 h, 14 days, read-out: Visual Growth Reduction (%) 14 Days After Application CHEAL; for pest or weed control at 35 g/ha: 35 g ai/ha; for pest or weed control at 70 g/ha: 70 g ai/ha; for pest or weed control at 140 g/ha: 140 g ai/ha
Procedure, shortened: as §1

[5] = system: CYPES: yellow nutsedge (Cyperus esculentus); assay: Post-Emergent Test II herbicidal activity; assay type: in vivo; settings: post-emergence, 336 h, 14 days, read-out: Visual Growth Reduction (%) 14 Days After Application CYPES; for pest or weed control at 35 g/ha: 35 g ai/ha; for pest or weed control at 70 g/ha: 70 g ai/ha; for pest or weed control at 140 g/ha: 140 g ai/ha
Procedure, shortened: as §1

[6] = system: ECHCG: barnyardgrass (Echinochloa crus-galli); assay: Post-Emergent Test II herbicidal activity; assay type: in vivo; settings: post-emergence, 336 h, 14 days, read-out: Visual Growth Reduction (%) 14 Days After Application ECHCG; for pest or weed control at 35 g/ha: 35 g ai/ha; for pest or weed control at 70 g/ha: 70 g ai/ha; for pest or weed control at 140 g/ha: 140 g ai/ha
Procedure, shortened: as §1

[7] = system: EPHHL: wild poinsettia (Euphorbia heterophylla); assay: Post-Emergent Test II herbicidal activity; assay type: in vivo; settings: post-emergence, 336 h, 14 days, read-out: Visual Growth Reduction (%) 14 Days After Application EPHHL; for pest or weed control at 35 g/ha: 35 g ai/ha; for pest or weed control at 70 g/ha: 70 g ai/ha; for pest or weed control at 140 g/ha: 140 g ai/ha
Procedure, shortened: as §1

[8] = system: HELAN: sunflower (Helianthus annuus); assay: Post-Emergent Test II herbicidal activity; assay type: in vivo; settings: post-emergence, 336 h, 14 days, read-out: Visual Growth Reduction (%) 14 Days After Application HELAN; for pest or weed control at 35 g/ha: 35 g ai/ha; for pest or weed control at 70 g/ha: 70 g ai/ha; for pest or weed control at 140 g/ha: 140 g ai/ha
Procedure, shortened: as §1

[9] = system: ORYSA: rice (Oryza sativa); assay: Post-Emergent Test II herbicidal activity; assay type: in vivo; settings: post-emergence, 336 h, 14 days, read-out: Visual Growth Reduction (%) 14 Days After Application ORYSA; for pest or weed control at 35 g/ha: 35 g ai/ha; for pest or weed control at 70 g/ha: 70 g ai/ha; for pest or weed control at 140 g/ha: 140 g ai/ha
Procedure, shortened: as §1

[10] = system: SETFA: giant foxtail (Setaria faberi); assay: Post-Emergent Test II herbicidal activity; assay type: in vivo; settings: post-emergence, 336 h, 14 days, read-out: Visual Growth Reduction (%) 14 Days After Application SETFA; for pest or weed control at 35 g/ha: 35 g ai/ha; for pest or weed control at 70 g/ha: 70 g ai/ha; for pest or weed control at 140 g/ha: 140 g ai/ha
Procedure, shortened: as §1

[11] = system: TRZAS: wheat, spring (Triticum aestivum); assay: Post-Emergent Test II herbicidal activity; assay type: in vivo; settings: post-emergence, 336 h, 14 days, read-out: Visual Growth Reduction (%) 14 Days After Application TRZAS; for pest or weed control at 35 g/ha: 35 g ai/ha; for pest or weed control at 70 g/ha: 70 g ai/ha; for pest or weed control at 140 g/ha: 140 g ai/ha
Procedure, shortened: as §1

[12] = system: ZEAMX: maize, corn (Zea mays); assay: Post-Emergent Test II herbicidal activity; assay type: in vivo; settings: post-emergence, 336 h, 14 days, read-out: Visual Growth Reduction (%) 14 Days After Application ZEAMX; for pest or weed control at 35 g/ha: 35 g ai/ha; for pest or weed control at 70 g/ha: 70 g ai/ha; for pest or weed control at 140 g/ha: 140 g ai/ha
Procedure, shortened: as §1

Row | SMILES | pest or weed control at 35 g/ha [1] [%] | pest or weed control at 70 g/ha [1] [%] | pest or weed control at 140 g/ha [1] [%] | pest or weed control at 35 g/ha [2] [%] | pest or weed control at 70 g/ha [2] [%] | pest or weed control at 140 g/ha [2] [%] | pest or weed control at 35 g/ha [3] [%] | pest or weed control at 70 g/ha [3] [%] | pest or weed control at 140 g/ha [3] [%] | pest or weed control at 35 g/ha [4] [%] | pest or weed control at 70 g/ha [4] [%] | pest or weed control at 140 g/ha [4] [%] | pest or weed control at 35 g/ha [5] [%] | pest or weed control at 70 g/ha [5] [%] | pest or weed control at 140 g/ha [5] [%] | pest or weed control at 35 g/ha [6] [%] | pest or weed control at 70 g/ha [6] [%] | pest or weed control at 140 g/ha [6] [%] | pest or weed control at 35 g/ha [7] [%] | pest or weed control at 70 g/ha [7] [%] | other results
1 | COC(=O)c1nc(-c2ccc3nsnc3c2)c(F)c(N)c1Cl [Compound 11] | 85 to 94 | 95 to 100 | 95 to 100 | 95 to 100 | 95 to 100 | 95 to 100 | 60 to 74 | 75 to 84 | 75 to 84 | 85 to 94 | 95 to 100 | 95 to 100 | 95 to 100 | 95 to 100 | 95 to 100 | 85 to 94 | 95 to 100 | 95 to 100 | 95 to 100 | 95 to 100 | pest or weed control at 140 g/ha [7]: 95 to 100%; pest or weed control at 35 g/ha [8]: 85 to 94%; pest or weed control at 70 g/ha [8]: 85 to 94%; pest or weed control at 140 g/ha [8]: 95 to 100%; pest or weed control at 35 g/ha [9]: 0 to 29%; pest or weed control at 70 g/ha [9]: 0 to 29%; pest or weed control at 140 g/ha [9]: 0 to 29%; pest or weed control at 35 g/ha [10]: 45 to 59%; pest or weed control at 70 g/ha [10]: 85 to 94%; pest or weed control at 140 g/ha [10]: 85 to 94%; pest or weed control at 35 g/ha [11]: 0 to 29%; pest or weed control at 70 g/ha [11]: 0 to 29%; pest or weed control at 140 g/ha [11]: 0 to 29%; pest or weed control at 35 g/ha [12]: 60 to 74%; pest or weed control at 70 g/ha [12]: 60 to 74%; pest or weed control at 140 g/ha [12]: 75 to 84%; melting point: 196 to 198 °C
2 | COC(=O)c1nc(-c2cc3nsnc3cc2F)cc(N)c1Cl [Compound 13] | 75 to 84 | 85 to 94 | 85 to 94 | 95 to 100 | 95 to 100 | 95 to 100 | 95 to 100 | 95 to 100 | 95 to 100 | 85 to 94 | 95 to 100 | 95 to 100 | 0 to 29 | 0 to 29 | 30 to 44 | 75 to 84 | 85 to 94 | 85 to 94 | 95 to 100 | 95 to 100 | pest or weed control at 140 g/ha [7]: 95 to 100%; pest or weed control at 35 g/ha [8]: 30 to 44%; pest or weed control at 70 g/ha [8]: 60 to 74%; pest or weed control at 140 g/ha [8]: 75 to 84%; pest or weed control at 35 g/ha [9]: 0 to 29%; pest or weed control at 70 g/ha [9]: 30 to 44%; pest or weed control at 140 g/ha [9]: 30 to 44%; pest or weed control at 35 g/ha [10]: 60 to 74%; pest or weed control at 70 g/ha [10]: 60 to 74%; pest or weed control at 140 g/ha [10]: 85 to 94%; pest or weed control at 35 g/ha [11]: 0 to 29%; pest or weed control at 70 g/ha [11]: 0 to 29%; pest or weed control at 140 g/ha [11]: 0 to 29%; pest or weed control at 35 g/ha [12]: 60 to 74%; pest or weed control at 70 g/ha [12]: 75 to 84%; pest or weed control at 140 g/ha [12]: 85 to 94%; melting point: 218 to 220 °C
3 | COC(=O)c1nc(-c2ccc3nonc3c2C)cc(N)c1Cl [Compound 17] | 0 to 29 | 45 to 59 | 60 to 74 | 95 to 100 | 95 to 100 | 95 to 100 | 60 to 74 | 75 to 84 | 85 to 94 | 85 to 94 | 95 to 100 | 95 to 100 | 60 to 74 | 60 to 74 | 75 to 84 | 0 to 29 | 0 to 29 | 0 to 29 | 0 to 29 | 0 to 29 | pest or weed control at 140 g/ha [7]: 0 to 29%; pest or weed control at 35 g/ha [8]: 0 to 29%; pest or weed control at 70 g/ha [8]: 45 to 59%; pest or weed control at 140 g/ha [8]: 60 to 74%; pest or weed control at 35 g/ha [9]: 0 to 29%; pest or weed control at 70 g/ha [9]: 0 to 29%; pest or weed control at 140 g/ha [9]: 0 to 29%; pest or weed control at 35 g/ha [10]: 0 to 29%; pest or weed control at 70 g/ha [10]: 0 to 29%; pest or weed control at 140 g/ha [10]: 0 to 29%; pest or weed control at 35 g/ha [11]: 0 to 29%; pest or weed control at 70 g/ha [11]: 0 to 29%; pest or weed control at 140 g/ha [11]: 30 to 44%; pest or weed control at 35 g/ha [12]: 0 to 29%; pest or weed control at 70 g/ha [12]: 0 to 29%; pest or weed control at 140 g/ha [12]: 0 to 29%; melting point: 182 to 185 °C
